“And” between values parts separate entries of the source, which are not always exact repeats. Equal entries are not always repeated. Where two headings read alike, the source gives them in different places. Marks after values point to notes of the source that are not given here.
What was measured:
P. falciparum Dd2-2D4 = assay: P. falciparum asexual blood stage (ABS) growth assay, SYBR Green, 72 h, wild-type parasites; format: cell-based, Plasmodium falciparum
[1] = test system: halofuginone-induced P. falciparum (elevated proline homeostasis); assay: P. falciparum ABS growth assay, SYBR Green, 72 h, halofuginone-induced parasites; format: cell-based, Plasmodium falciparum; conditions: for parasite growth, dose-response point: Halofuginone-Induced (HFG-Induced)
Method in brief: (§1)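 Asexual blood-stage Dd2 parasites, 1% parasitemia/1% hematocrit, RPMI + 0.5% Albumax; triplicate dose-response, 72 h. Readout SYBR Green 1 fluorescence. Controls: 10 μM dihydroartemisinin (kill), no compound (growth). EC50 values determined.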

[2] = test system: HFGR-I P. falciparum (elevated proline homeostasis and PfcProRS^L482H); assay: P. falciparum ABS growth assay, SYBR Green, 72 h, HFGR-I parasites; format: cell-based, Plasmodium falciparum; conditions: for parasite growth, dose-response point: HFGR-I
Method in brief: as §1

PfcProRS = target: T1, PfcProRS (Plasmodium falciparum, UniProt Q8I5R7); format: binding; conditions: for Normalized response, dose-response replicates (SI Fig 14): replicates 1-3
T1 construct: made in house; host or cells: E. coli SoluBL-21
T1 sequence (Q8I5R7 249-746): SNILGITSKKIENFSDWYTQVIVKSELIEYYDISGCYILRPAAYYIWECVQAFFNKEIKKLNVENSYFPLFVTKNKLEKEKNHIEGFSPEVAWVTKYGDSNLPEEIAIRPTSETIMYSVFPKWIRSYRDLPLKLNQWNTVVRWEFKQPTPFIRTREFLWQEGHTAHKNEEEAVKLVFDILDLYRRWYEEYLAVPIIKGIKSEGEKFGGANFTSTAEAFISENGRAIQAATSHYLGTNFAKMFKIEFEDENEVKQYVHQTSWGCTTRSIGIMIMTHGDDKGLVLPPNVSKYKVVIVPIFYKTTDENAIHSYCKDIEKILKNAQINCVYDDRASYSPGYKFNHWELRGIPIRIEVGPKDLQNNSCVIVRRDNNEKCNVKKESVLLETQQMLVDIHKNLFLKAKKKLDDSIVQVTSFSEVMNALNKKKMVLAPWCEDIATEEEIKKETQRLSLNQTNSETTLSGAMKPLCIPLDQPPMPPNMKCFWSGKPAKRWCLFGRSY

HsProRS = HsProRS (Homo sapiens, UniProt P07814); assay: TR-FRET ligand displacement assay with tracer MAT379 (CoraFluor-1-Halo and anti-His6 antibody formats); format: binding; set-up: made in house; host or cells: E. coli SoluBL-21; conditions: for normalized TR-FRET signal (dose-response replicates): SI Fig 17a
Chain of HsProRS (P07814 996-1512): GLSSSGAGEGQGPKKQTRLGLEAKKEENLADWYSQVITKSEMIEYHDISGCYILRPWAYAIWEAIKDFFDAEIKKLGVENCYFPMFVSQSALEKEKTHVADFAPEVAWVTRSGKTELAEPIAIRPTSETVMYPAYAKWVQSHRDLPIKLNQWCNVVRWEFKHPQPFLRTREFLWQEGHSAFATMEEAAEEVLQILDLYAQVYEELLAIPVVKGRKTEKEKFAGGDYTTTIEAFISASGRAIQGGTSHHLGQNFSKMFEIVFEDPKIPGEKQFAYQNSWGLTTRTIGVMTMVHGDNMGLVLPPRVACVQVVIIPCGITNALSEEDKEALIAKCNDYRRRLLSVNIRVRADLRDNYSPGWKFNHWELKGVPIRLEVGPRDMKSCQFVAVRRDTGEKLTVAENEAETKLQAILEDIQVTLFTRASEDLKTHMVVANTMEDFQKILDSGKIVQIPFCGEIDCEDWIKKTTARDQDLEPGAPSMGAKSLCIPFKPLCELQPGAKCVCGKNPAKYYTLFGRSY

[3] = 10 μM, compound had <50% inhibition
[4] = Log[inhibitor] (M) -5.000, series r4-r15

## CC(C)(C)OC(=O)N1CCC[C@H]1C(=O)NC1CCN(C(=O)Nc2nccnc2C(=O)NC2Cc3ccccc3C2)CC1 [compound 31]
P. falciparum Dd2-2D4; [3]
  percent growth at 10 μM, Dd2 wt: 102%^b
P. falciparum Dd2-2D4; Plasmodium falciparum, wildtype (Dd2-2D4), bound given in μM, read-out: Dd2 EC50 wildtype (Dd2-2D4), bound
  EC50: > 10 µM
P. falciparum Dd2-2D4; wildtype (Dd2-2D4), 10 μM
  % signal at 10 μM, wildtype (Dd2-2D4): 102%
[1]; [3]
  percent growth at 10 μM, Dd2 Halofuginone-induced: 98%^b
[1]; [4]
  parasite growth, dose-response point: 103 and 98 and 92
[1]; Log[inhibitor] (M) -5.301
  parasite growth, dose-response point: 107 and 109 and 115
[1]; Log[inhibitor] (M) -5.602
  parasite growth, dose-response point: 124 and 110 and 116
[1]; Log[inhibitor] (M) -5.903
  parasite growth, dose-response point: 117 and 106 and 104
[1]; Log[inhibitor] (M) -6.204
  parasite growth, dose-response point: 111 and 107 and 99
[1]; Log[inhibitor] (M) -6.505
  parasite growth, dose-response point: 98 (2×) and 104
[1]; Log[inhibitor] (M) -6.806
  parasite growth, dose-response point: 109 and 112 and 103
[1]; Log[inhibitor] (M) -7.107
  parasite growth, dose-response point: 105 and 103 and 108
[1]; Log[inhibitor] (M) -7.408
  parasite growth, dose-response point: 116 and 109 and 103
[1]; Log[inhibitor] (M) -7.709
  parasite growth, dose-response point: 115 and 100 and 119
[1]; Log[inhibitor] (M) -8.010
  parasite growth, dose-response point: 104 and 100 and 101
[1]; Log[inhibitor] (M) -8.311
  parasite growth, dose-response point: 107 and 102 and 101
[1]; Plasmodium falciparum, DD2, halofuginone-induced, bound given in μM, read-out: Dd2 EC50 halofuginone-induced, bound
  EC50: > 10 µM
[1]; halofuginone-induced, 10 μM
  % signal at 10 μM, halofuginone-induced: 97.7%
[2]; [3]
  percent growth at 10 μM, Dd2 HFGR-I: 103%^b
[2]; HFGR1, 10 μM
  % signal at 10 μM, HFGR1: 103%
[2]; [4]
  parasite growth, dose-response point: 106 and 104 and 99
[2]; Log[inhibitor] (M) -5.301
  parasite growth, dose-response point: 101 and 100
[2]; Log[inhibitor] (M) -5.602
  parasite growth, dose-response point: 105 and 102 and 104
[2]; Log[inhibitor] (M) -5.903
  parasite growth, dose-response point: 95 and 102 and 101
[2]; Log[inhibitor] (M) -6.204
  parasite growth, dose-response point: 104 and 99 and 98
[2]; Log[inhibitor] (M) -6.505
  parasite growth, dose-response point: 99 and 95 and 97
[2]; Log[inhibitor] (M) -6.806
  parasite growth, dose-response point: 108 and 106 and 107
[2]; Log[inhibitor] (M) -7.107
  parasite growth, dose-response point: 106 and 105
[2]; Log[inhibitor] (M) -7.408
  parasite growth, dose-response point: 109 and 104 and 106
[2]; Log[inhibitor] (M) -7.709
  parasite growth, dose-response point: 108 and 106
[2]; Log[inhibitor] (M) -8.010
  parasite growth, dose-response point: 103 and 105
[2]; Log[inhibitor] (M) -8.311
  parasite growth, dose-response point: 108 and 105 and 104
[2]; Plasmodium falciparum, DD2, HFGR1, bound given in μM, read-out: Dd2 EC50 HFGR1, bound
  EC50: > 10 µM
PfcProRS; Log[inhibitor] (M) -5.000
  Normalized response, dose-response replicates (SI Fig 14): 5.64E-01 and 5.99E-01 and 6.18E-01
PfcProRS; Log[inhibitor] (M) -5.301
  Normalized response, dose-response replicates (SI Fig 14): 6.96E-01 and 6.54E-01 and 6.55E-01
PfcProRS; Log[inhibitor] (M) -5.601
  Normalized response, dose-response replicates (SI Fig 14): 8.77E-01 and 8.39E-01 and 9.75E-01
PfcProRS; Log[inhibitor] (M) -5.904
  Normalized response, dose-response replicates (SI Fig 14): 9.20E-01 and 8.45E-01 and 8.88E-01
PfcProRS; Log[inhibitor] (M) -6.208
  Normalized response, dose-response replicates (SI Fig 14): 9.89E-01 and 9.27E-01 and 1.07E+00
PfcProRS; Log[inhibitor] (M) -6.509
  Normalized response, dose-response replicates (SI Fig 14): 1.00E+00 and 9.45E-01 and 8.96E-01
PfcProRS; Log[inhibitor] (M) -6.796
  Normalized response, dose-response replicates (SI Fig 14): 8.17E-01 and 9.17E-01 and 9.69E-01
PfcProRS; Log[inhibitor] (M) -7.108
  Normalized response, dose-response replicates (SI Fig 14): 9.90E-01 and 9.44E-01 and 8.89E-01
PfcProRS; Log[inhibitor] (M) -7.409
  Normalized response, dose-response replicates (SI Fig 14): 9.05E-01 and 8.67E-01 and 8.30E-01
PfcProRS; Log[inhibitor] (M) -7.710
  Normalized response, dose-response replicates (SI Fig 14): 9.25E-01 and 1.08E+00 and 9.24E-01
PfcProRS; Log[inhibitor] (M) -8.000
  Normalized response, dose-response replicates (SI Fig 14): 8.19E-01 and 1.06E+00 and 9.65E-01
PfcProRS; Log[inhibitor] (M) -8.301
  Normalized response, dose-response replicates (SI Fig 14): 1.15E+00 and 1.07E+00 (2×)
PfcProRS; Log[inhibitor] (M) -8.602
  Normalized response, dose-response replicates (SI Fig 14): 1.06E+00 and 1.03E+00 and 1.05E+00
PfcProRS; Log[inhibitor] (M) -9.000
  Normalized response, dose-response replicates (SI Fig 14): 8.95E-01 and 9.81E-01 and 1.04E+00
PfcProRS; Log[inhibitor] (M) -9.301
  Normalized response, dose-response replicates (SI Fig 14): 1.02E+00 and 9.15E-01 and 1.14E+00
PfcProRS; SI Fig 16a, values on -log scale
  PfcProRS -- best Kd: 5.701
HsProRS; + 100 μM proline, 10 μM
  HsProRS % signal at 10 μM, + 100 μM proline: 59.4%
HsProRS; HsProRS (KD [nM]) −, absence of substrates, 250 nM MAT379
  Kd: 5130 nM
HsProRS; HsProRS KD + 100 μM proline, bound, + 100 μM proline, bound given in μM
  Kd: > 5090 nM
HsProRS; Log[inhibitor] (M) -5.000, series of 31
  normalised signal, dose-response point (Fig 4d): 4.79E-01 and 4.46E-01
HsProRS; Log[inhibitor] (M) -5.286
  normalised signal, dose-response point (Fig 4d): 6.67E-01 and 6.31E-01
HsProRS; Log[inhibitor] (M) -5.574
  normalised signal, dose-response point (Fig 4d): 7.84E-01 and 7.77E-01
HsProRS; Log[inhibitor] (M) -5.862
  normalised signal, dose-response point (Fig 4d): 8.87E-01 and 8.96E-01
HsProRS; Log[inhibitor] (M) -6.151
  normalised signal, dose-response point (Fig 4d): 9.64E-01 and 9.65E-01
HsProRS; Log[inhibitor] (M) -6.428
  normalised signal, dose-response point (Fig 4d): 9.34E-01 and 9.44E-01
HsProRS; Log[inhibitor] (M) -6.729
  normalised signal, dose-response point (Fig 4d): 9.61E-01 and 9.47E-01
HsProRS; Log[inhibitor] (M) -7.006
  normalised signal, dose-response point (Fig 4d): 9.42E-01 and 8.63E-01
HsProRS; Log[inhibitor] (M) -7.295
  normalised signal, dose-response point (Fig 4d): 9.55E-01 and 9.92E-01
HsProRS; Log[inhibitor] (M) -7.585
  normalised signal, dose-response point (Fig 4d): 1.05E+00 and 9.07E-01
HsProRS; Log[inhibitor] (M) -7.875
  normalised signal, dose-response point (Fig 4d): 9.50E-01 and 9.36E-01
HsProRS; Log[inhibitor] (M) -8.135
  normalised signal, dose-response point (Fig 4d): 9.31E-01 and 9.40E-01
HsProRS; Log[inhibitor] (M) -8.477
  normalised signal, dose-response point (Fig 4d): 9.84E-01 and 9.46E-01
HsProRS; Log[inhibitor] (M) -8.699
  normalised signal, dose-response point (Fig 4d): 8.68E-01 and 9.88E-01
HsProRS; Log[inhibitor] (M) -9.176
  normalised signal, dose-response point (Fig 4d): 1.01E+00 and 1.00E+00
HsProRS; Log[inhibitor] (M) -9.363
  normalised signal, dose-response point (Fig 4d): 9.70E-01 and 9.49E-01
HsProRS; Log[inhibitor] (M) -5.000
  normalized TR-FRET signal (dose-response replicates): 3.75E-01 and 3.29E-01 and 2.94E-01
HsProRS; Log[inhibitor] (M) -5.301
  normalized TR-FRET signal (dose-response replicates): 5.13E-01 and 4.93E-01 and 4.68E-01
HsProRS; Log[inhibitor] (M) -5.601
  normalized TR-FRET signal (dose-response replicates): 7.38E-01 and 6.61E-01 and 6.36E-01
HsProRS; Log[inhibitor] (M) -5.904
  normalized TR-FRET signal (dose-response replicates): 7.87E-01 and 7.39E-01 and 7.57E-01
HsProRS; Log[inhibitor] (M) -6.208
  normalized TR-FRET signal (dose-response replicates): 8.48E-01 and 8.27E-01 and 8.24E-01
HsProRS; Log[inhibitor] (M) -6.509
  normalized TR-FRET signal (dose-response replicates): 8.55E-01 and 8.71E-01 and 8.75E-01
HsProRS; Log[inhibitor] (M) -6.796
  normalized TR-FRET signal (dose-response replicates): 8.61E-01 and 8.99E-01 and 9.13E-01
HsProRS; Log[inhibitor] (M) -7.108
  normalized TR-FRET signal (dose-response replicates): 8.48E-01 and 8.44E-01 and 8.72E-01
HsProRS; Log[inhibitor] (M) -7.409
  normalized TR-FRET signal (dose-response replicates): 9.07E-01 and 8.89E-01 and 8.65E-01
HsProRS; Log[inhibitor] (M) -7.710
  normalized TR-FRET signal (dose-response replicates): 8.96E-01 and 8.93E-01 and 8.29E-01
HsProRS; Log[inhibitor] (M) -8.000
  normalized TR-FRET signal (dose-response replicates): 9.41E-01 and 8.72E-01 and 9.37E-01
HsProRS; Log[inhibitor] (M) -8.301
  normalized TR-FRET signal (dose-response replicates): 8.90E-01 (2×) and 9.30E-01
HsProRS; Log[inhibitor] (M) -8.602
  normalized TR-FRET signal (dose-response replicates): 9.13E-01 and 9.30E-01 and 9.15E-01
HsProRS; Log[inhibitor] (M) -9.000
  normalized TR-FRET signal (dose-response replicates): 9.52E-01 and 8.88E-01 and 9.53E-01
HsProRS; Log[inhibitor] (M) -9.301
  normalized TR-FRET signal (dose-response replicates): 9.64E-01 and 9.01E-01 and 8.76E-01
